Measurements from patent publication US9855236B2, “Pharmaceutical compositions comprising DGLA and/or 15-HETrE and methods of use thereof” (Dignity Sciences Limited, priority 2011, dated 2018).

Legend:
[1] = test system: UV-induced edema and erythema; assay: Sinclair miniature swine phototoxicity model: sites treated topically for 7 days, then exposed to UV (prevention); format: in vivo; conditions: for prevention of UV-induced erythema: topical before UV exposure; for average Draize score as compared to test sites treated with the control vehicle: test sites first treated topically twice daily for 7 days, then exposed to UV radiation, vehicle ethanol, FIGS. 7-12
Protocol: Compositions comprising DGLA and/or 15-HETrE were tested for their ability to treat and/or prevent edema and erythema (e.g., UV induced erythema). In an exemplary method, a Sinclair miniature swine model of phototoxicity testing was employed to examine the effects of such compositions on UV-induced edema and erythema. Miniature swine were chosen for these studies as they have a skin structure that closely resembles that of humans. The miniature swine used in these studies were fed standard Sinclair S-9 ration or equivalent, once a day at a maintenance amount and had ad libitum access to deep well water. Throughout the study, the swine were housed individually in cages (˜3×5 ft) constructed of stainless steel with self-spanned polyvinyl chloride (PVC)-coated expanded metal flooring. The animal housing rooms were set to maintain a room temperature of 16 to 27° C. (61 to 81° F.), with fluorescent lights providing an approximate 12-hr light/12-hr dark photoperiod. The animals were acclimated for approximately 5 days prior to the start of dosing. During acclimation, animals were subject to a physical examination by a veterinarian and any animal with questionable health was excluded from these studies. For these studies, two groups each consisting of three animals (#1-#3) were used. For each animal, ten sites (e.g., dose sites) for were established on the torso and the hair at the site was clipped with an electric clipper. These sites were then shaved and demarcated by tattooing at least four days prior to the start of initial dosing on study day 1. The dose sites may be shaved with a razor the day prior to initial dose administration and prior to the second and third application when applicable. The sites (approximately 4 cm^2 in size) were evenly split on the left and right side with 5 sites demarcated on each side. Each animal was topically administered a composition comprising a control vehicle (ethanol), DGLA or HETrE to the demarcated test sites on the animal before and/or after exposure of the test sites to UV radiation. Specifically, […] comprising 0.1 mg/mL, 1.0 mg/mL, or 10 mg/mL 15-HETrE was applied to separate 4 cm^2 areas of the skin (e.g., test sites) on each animal to achieve a dose per area of 0.1 mg/4 cm^2, 1.0 mg/4 cm^2, or 10.0 mg/4 cm^2 DGLA or 0.1 mg/4 cm^2, 1.0 mg/4 cm^2, or 10.0 mg/4 cm^2 15-HETrE, respectively. Such compositions were applied via a pipette twice daily with approximately seven hours between administrations over 7 days. Table 1 below outlines the dosing regimen for the 10 sites on each animal and indicates the day that the animal was administered a dose of UV radiation. For example, for test sites 5-7, the sites were first exposed to UV radiation on day 4 and then contacted topically with DGLA or HETrE on days 4-10. Additionally, for example, for test sites 8-10, the sites were topically contacted with DGLA or HETrE on days 1-7 and then exposed to UV radiation on day 8. [table] Animals receiving UV light were anesthetized via isoflurane gas and 100% oxygen. To exposure the animals to UV, a bank of fluorescent lamps utilizing 10 UVA and 1 UVB bulb was then suspended over the animal. The correct dose level of UV light applied to the designated dose site was verified using a Solar Light® light meter. Animals were exposed to MED/hi of 4 for a time period of 21 minutes yielding a MEDi of 1.4. […]

[2] = test system: UV-induced edema and erythema; assay: Sinclair miniature swine phototoxicity model: sites exposed to UV, then treated topically for 7 days (treatment); format: in vivo; conditions: for average Draize score as compared to test sites treated with the control vehicle: test sites first exposed to UV radiation, then treated topically twice daily for 7 days, any of the tested dosages, vehicle ethanol, FIGS. 1-6; for treating or reversing UV induced erythema: topical application after UV exposure
Protocol: Compositions comprising DGLA and/or 15-HETrE were tested for their ability to treat and/or prevent edema and erythema (e.g., UV induced erythema). In an exemplary method, a Sinclair miniature swine model of phototoxicity testing was employed to examine the effects of such compositions on UV-induced edema and erythema. Miniature swine were chosen for these studies as they have a skin structure that closely resembles that of humans. The miniature swine used in these studies were fed standard Sinclair S-9 ration or equivalent, once a day at a maintenance amount and had ad libitum access to deep well water. Throughout the study, the swine were housed individually in cages (˜3×5 ft) constructed of stainless steel with self-spanned polyvinyl chloride (PVC)-coated expanded metal flooring. The animal housing rooms were set to maintain a room temperature of 16 to 27° C. (61 to 81° F.), with fluorescent lights providing an approximate 12-hr light/12-hr dark photoperiod. The animals were acclimated for approximately 5 days prior to the start of dosing. During acclimation, animals were subject to a physical examination by a veterinarian and any animal with questionable health was excluded from these studies. For these studies, two groups each consisting of three animals (#1-#3) were used. For each animal, ten sites (e.g., dose sites) for were established on the torso and the hair at the site was clipped with an electric clipper. These sites were then shaved and demarcated by tattooing at least four days prior to the start of initial dosing on study day 1. The dose sites may be shaved with a razor the day prior to initial dose administration and prior to the second and third application when applicable. The sites (approximately 4 cm^2 in size) were evenly split on the left and right side with 5 sites demarcated on each side. Each animal was topically administered a composition comprising a control vehicle (ethanol), DGLA or HETrE to the demarcated test sites on the animal before and/or after exposure of the test sites to UV radiation. Specifically, a 0.1 mL dose of a composition comprising 1 mg/mL, 10 mg/mL, or 100 mg/mL of DGLA and a 0.1 mL dose of a composition comprising 0.1 mg/mL, 1.0 mg/mL, or 10 mg/mL 15-HETrE was applied to separate 4 cm^2 areas of the skin (e.g., test sites) on each animal to achieve a dose per area of 0.1 mg/4 cm^2, 1.0 mg/4 cm^2, or 10.0 mg/4 cm^2 DGLA or 0.1 mg/4 cm^2, 1.0 mg/4 cm^2, or 10.0 mg/4 cm^2 15-HETrE, respectively. Such compositions were applied via a pipette twice daily with approximately seven hours between administrations over 7 days. Table 1 below outlines the dosing regimen for the 10 sites on each animal and indicates the day that the animal was administered a dose of UV radiation. […]

CCCCC/C=C\C/C=C\C/C=C\CCCCCCC(=O)O [DGLA, cis-8,11,14-eicosatrienoic acid]
skin irritation by the high dose ([1]; 10 mg/mL dose of DGLA, topical, prevention of erythema could not be determined at this dose): irritating to the skin
prevention of UV-induced erythema ([1]; dose of 0.1 or 1.0 mg/mL DGLA): able to prevent UV-induced erythema
average Draize score as compared to test sites treated with the control vehicle [1]: significant reduction
average Draize score as compared to test sites treated with the control vehicle [2]: did not exhibit an appreciable difference
treating or reversing UV induced erythema [2]: not capable of treating or reversing UV induced erythema

CCCCCC(O)/C=C/C=C\C/C=C\CCCCCCC(=O)O (stereo not drawn) [HETrE, 15-Hydroxy-eicosa-8(Z),11(Z),13(E)-trienoic acid]
prevention of UV-induced erythema ([1]; dose of 0.01, 0.1, or 1.0 mg/mL HETrE): able to prevent UV-induced erythema
average Draize score as compared to test sites treated with the control vehicle [1]: significant reduction
average Draize score as compared to test sites treated with the control vehicle [2]: did not exhibit an appreciable difference
treating or reversing UV induced erythema [2]: not capable of treating or reversing UV induced erythema
